Experiment [1] has as its system DU-145. Kind of experiment: Induction of apoptosis in human DU145 cells assessed as necrotic cells at 8 uM measured after 24 hrs by Annexin-V/FITC and propidium iodide staining based flow cytometry (reference value: 2.64 %). The experiment is classed as functional. For orientation: A flow cytometer gives signals particle by particle.
Experiment [2] concerns DU-145. Kind of experiment: Induction of apoptosis in human DU145 cells assessed as early apoptotic cells at 8 uM measured after 24 hrs by Annexin-V/FITC and propidium iodide staining based flow cytometry (reference value: 0.25 %). The experiment is classed as functional.
For experiment [3], the system named is DU-145. Kind of experiment: Induction of apoptosis in human DU145 cells assessed as late apoptotic cells at 5.2 uM measured after 24 hrs by Annexin-V/FITC and propidium iodide staining based flow cytometry (reference value: 1.49 %). The experiment is classed as functional.
Experiment [4] has as its system DU-145. Kind of experiment: Induction of apoptosis in human DU145 cells assessed as necrotic cells at 5.2 uM measured after 24 hrs by Annexin-V/FITC and propidium iodide staining based flow cytometry (reference value: 2.64 %). The experiment is classed as functional.
Experiment [5] concerns DU-145. Kind of experiment: Induction of apoptosis in human DU145 cells assessed as live cells at 5.2 uM measured after 24 hrs by Annexin-V/FITC and propidium iodide staining based flow cytometry (reference value: 95.62 %). The experiment is classed as functional.
Experiment [6] has as its system COLO 205. The experiment in a line: Cytotoxicity against human COLO205 cells assessed as cell growth inhibition measured after 24 hrs by MTT assay. The experiment is classed as functional, cell-based. Conditions: COLO 205, 24 h. For orientation: Tetrazolium dyes change colour on reduction, which living cells bring about.
Experiment [7] has as its system SK-OV-3. The experiment in a line: Cytotoxicity against human SKOV3 cells assessed as cell growth inhibition measured after 24 hrs by MTT assay. The experiment is classed as functional, cell-based. Conditions: SK-OV-3, 24 h.
The test system of experiment [8] is DU-145. The experiment in a line: Induction of apoptosis in human DU145 cells assessed as late apoptotic cells at 8 uM measured after 24 hrs by Annexin-V/FITC and propidium iodide staining based flow cytometry (reference value: 1.49 %). The experiment is classed as functional.
Experiment [9] concerns A549. The experiment in a line: Cytotoxicity against human A549 cells assessed as cell growth inhibition measured after 24 hrs by MTT assay. The experiment is classed as functional, cell-based. Conditions: A549, 24 h.
The subject of experiment [10] is DU-145. The experiment in a line: Cytotoxicity against human DU145 cells assessed as cell growth inhibition measured after 24 hrs by MTT assay. The experiment is classed as functional, cell-based. The note with it: DU-145, 24 h.
Experiment [11] has as its system HeLa. Kind of experiment: Cytotoxicity against human HeLa cells assessed as cell growth inhibition measured after 24 hrs by MTT assay. The experiment is classed as functional, cell-based.
The test system of experiment [12] is DU-145. The experiment in a line: Induction of apoptosis in human DU145 cells assessed as live cells at 8 uM measured after 24 hrs by Annexin-V/FITC and propidium iodide staining based flow cytometry (reference value: 95.62 %). The experiment is classed as functional.
Experiment [13] deals with DU-145. The experiment in a line: Induction of apoptosis in human DU145 cells assessed as early apoptotic cells at 5.2 uM measured after 24 hrs by Annexin-V/FITC and propidium iodide staining based flow cytometry (reference value: 0.25 %). The experiment is classed as functional.
The subject of experiment [14] is DU-145. Kind of experiment: Cell cycle arrest in human DU145 cells assessed as accumulation at G0/G1 phase at 5.2 uM measured after 24 hrs by RNase A/propidium iodide staining based flow cytometry analysis (reference value: 51.75 %). The experiment is classed as functional.

A value given as a limit tells only on which side of the number the result lay.

From ChEMBL document CHEMBL4414608, “Secophragmalin-Type Limonoids from Trichilia connaroides: Isolation, Semisynthesis, and Their Cytotoxic Activities” (J Nat Prod, 2019) come the findings set out here.

One may read the IC50 as the point on the concentration scale where inhibition reaches its midpoint. `C/C=C(\C)C(=O)O[C@@H]1[C@]2(OC(=O)CCCC)C=C3C4=CC(=O)O[C@@H](c5ccoc5)[C@]4(C)CC[C@@H]3[C@@]3(C)[C@H](C[C@]1(C)[C@H]3[C@@H](O)C(=O)OC)O2`: the Activity in experiment [1] is on record as 5.11%; in experiment [2], 1.39%; in experiment [3], 10.35%; in experiment [4] it was 4.46%; in experiment [5], 83.45%; in experiment [8] it was 8.11%. Also, the Activity in experiment [12] was 85.39%; in [13], 1.74%; in [14], 42.93%. Also, the IC50 was 4 µM in experiment [6]; 13.7 µM in [7]; 9.4 µM in [9]; 5.2 µM in experiment [10]; more than 100 µM in experiment [11].
